Columns and labels:
[1] = molecular target: purified recombinant human GAC (GLS1) (Homo sapiens (Human), UniProt O94925); test: GLS1 Enzymatic Activity Assay (dual-coupled enzymatic assay, resorufin/Amplex UltraRed readout); format: biochemical;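 further: glutamate from GAC coupled via glutamate oxidase and peroxidase to resorufin, read as fluorescence (ex 530, em 590 nm) kinetically or at 20 min, four-parameter logistic IC50 fit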
A549 cells = test: Proliferation Assay (A549 viability, Cell Titer Fluor, 72 hours); format: cell-based; settings: Homo sapiens, A549, 72 h
Method in brief: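 Cell Titer Fluor fluorescence after 72 h compound treatment (0.5% DMSO, 37 °C, 5% CO2) of A549 cells plated 24 h earlier at 1000/well. Four-parameter logistic fitting gave IC50.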

purified recombinant human GAC (GLS1), sequence (O94925 other isoform, or with tags, fused parts or gaps): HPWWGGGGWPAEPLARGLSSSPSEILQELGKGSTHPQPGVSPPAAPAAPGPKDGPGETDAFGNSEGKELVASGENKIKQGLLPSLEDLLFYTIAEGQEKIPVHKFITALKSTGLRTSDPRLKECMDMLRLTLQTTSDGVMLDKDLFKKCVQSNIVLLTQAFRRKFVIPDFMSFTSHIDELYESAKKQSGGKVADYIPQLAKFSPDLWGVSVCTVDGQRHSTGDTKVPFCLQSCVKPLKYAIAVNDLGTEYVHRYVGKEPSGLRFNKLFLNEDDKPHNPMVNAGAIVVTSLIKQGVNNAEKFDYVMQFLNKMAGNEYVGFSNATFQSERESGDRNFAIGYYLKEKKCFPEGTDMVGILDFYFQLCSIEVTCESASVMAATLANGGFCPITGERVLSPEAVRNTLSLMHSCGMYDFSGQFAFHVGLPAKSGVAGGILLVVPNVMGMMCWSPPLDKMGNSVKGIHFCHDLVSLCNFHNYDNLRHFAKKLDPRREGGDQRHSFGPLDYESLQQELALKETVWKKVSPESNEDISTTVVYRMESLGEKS

Row | Compound | IC50 [1] [nM] | EC50 (A549 cells) [nM]
1 | O=C(NCc1ccc(C(F)(F)F)cn1)c1cn(CC(F)CCc2nnc(C(=O)NCc3cccc(C(F)(F)F)n3)s2)nn1 (stereo not shown) [Example 492, 5-{3-fluoro-4-[4-({[5-(trifluoromethyl)pyridin-2-yl]methyl}carbamoyl)-1H-1,2,3-triazol-1-yl]butyl}-N-{[6-(trifluoromethyl)pyridin-2-yl]methyl}-1,3,4-thiadiazole-2-carboxamide] | < 100 | 100 to 500
2 | O=C(Cc1cccc(OC(F)(F)F)c1)Nc1nnc(CCC(F)Cn2cc(C(=O)NCc3ccc(C(F)(F)F)cn3)nn2)s1 (stereo not shown) [Example 493, 1-[2-fluoro-4-(5-{2-[3-(trifluoromethoxy)phenyl]acetamido}-1,3,4-thiadiazol-2-yl)butyl]-N-{[5-(trifluoromethyl)pyridin-2-yl]methyl}-1H-1,2,3-triazole-4-carboxamide] | < 100 | < 100
3 | O=C(Cc1cccc(OC(F)(F)F)c1)Nc1nnc(CCC(F)Cn2cc(C(=O)NCc3cccc(C(F)(F)F)n3)nn2)s1 (stereo not shown) [Example 494, 1-[2-fluoro-4-(5-{2-[3-(trifluoromethoxy)phenyl]acetamido}-1,3,4-thiadiazol-2-yl)butyl]-N-{[6-(trifluoromethyl)pyridin-2-yl]methyl}-1H-1,2,3-triazole-4-carboxamide] | < 100 | < 100
4 | O=C(Cc1cccc(OC(F)(F)F)c1)Nc1nnc(CCC(F)Cn2cc(C(=O)NCc3cc(C(F)(F)F)ccn3)nn2)s1 (stereo not shown) [Example 495, 1-[2-fluoro-4-(5-{2-[3-(trifluoromethoxy)phenyl]acetamido}-1,3,4-thiadiazol-2-yl)butyl]-N-{[4-(trifluoromethyl)pyridin-2-yl]methyl}-1H-1,2,3-triazole-4-carboxamide] | < 100 | < 100
5 | O=C(Cc1cccc(OC(F)(F)F)c1)Nc1nnc(CCC(F)Cn2cc(C(=O)NCc3cncc(C(F)(F)F)c3)nn2)s1 (stereo not shown) [Example 496, 1-[2-fluoro-4-(5-{2-[3-(trifluoromethoxy)phenyl]acetamido}-1,3,4-thiadiazol-2-yl)butyl]-N-{[5-(trifluoromethyl)pyridin-3-yl]methyl}-1H-1,2,3-triazole-4-carboxamide] | < 100 | < 100
6 | CNC(=O)c1cn(CC(F)CCc2nnc(NC(=O)Cc3cccc(OC(F)(F)F)c3)s2)nn1 (stereo not shown) [Example 497, 1-(2-fluoro-4-(5-(2-(3-(trifluoromethoxy)phenyl)acetamido)-1,3,4-thiadiazol-2-yl)butyl)-N-methyl-1H-1,2,3-triazole-4-carboxamide] | < 100 | 100 to 500
7 | O=C(Cc1cccc(OC(F)(F)F)c1)Nc1nnc(CCC(F)Cn2cc(C(=O)NCc3ccc(C(F)(F)F)nc3)nn2)s1 (stereo not shown) [Example 498, 1-[2-fluoro-4-(5-{2-[3-(trifluoromethoxy)phenyl]acetamido}-1,3,4-thiadiazol-2-yl)butyl]-N-{[6-(trifluoromethyl)pyridin-3-yl]methyl}-1H-1,2,3-triazole-4-carboxamide] | < 100 | < 100
8 | O=C(NCc1cc(C(F)(F)F)ccn1)c1cn(CC(F)CCc2nnc(C(=O)NCC(F)(F)F)s2)nn1 (stereo not shown) [Example 499, 5-{3-fluoro-4-[4-({[4-(trifluoromethyl)pyridin-2-yl]methyl}carbamoyl)-1H-1,2,3-triazol-1-yl]butyl}-N-(2,2,2-trifluoroethyl)-1,3,4-thiadiazole-2-carboxamide] | 100 to 500 | 100 to 500
9 | O=C(NCc1cncc(C(F)(F)F)c1)c1cn(CC(F)CCc2nnc(C(=O)NCC(F)(F)F)s2)nn1 (stereo not shown) [Example 500, 5-{3-fluoro-4-[4-({[5-(trifluoromethyl)pyridin-3-yl]methyl}carbamoyl)-1H-1,2,3-triazol-1-yl]butyl}-N-(2,2,2-trifluoroethyl)-1,3,4-thiadiazole-2-carboxamide] | 100 to 500 | 100 to 500
10 | CNC(=O)c1cn(CC(F)CCc2nnc(C(=O)NCc3cncc(C(F)(F)F)c3)s2)nn1 (stereo not shown) [Example 501, 5-{3-fluoro-4-[4-(methylcarbamoyl)-1H-1,2,3-triazol-1-yl]butyl}-N-{[- (trifluoromethyl)pyridin-3-yl]methyl}-1,3,4-thiadiazole-2-carboxamide] | 100 to 500 | 100 to 500
11 | O=C(NCCC(F)(F)F)c1cn(CC(F)CCc2nnc(C(=O)NCc3cncc(C(F)(F)F)c3)s2)nn1 (stereo not shown) [Example 502, 5-(3-fluoro-4-{4-[(3,3,3-trifluoropropyl)carbamoyl]-1H-1,2,3-triazol-1-yl}butyl)-N-{[5-(trifluoromethyl)pyridin-3-yl]methyl}-1,3,4-thiadiazole-2-carboxamide] | 100 to 500 | 100 to 500
12 | CNC(=O)c1nnc(CCC(F)Cn2cc(C(=O)NCc3cc(C(F)(F)F)ccn3)nn2)s1 (stereo not shown) [Example 503, 5-{3-fluoro-4-[4-({[4-(trifluoromethyl)pyridin-2-yl]methyl}carbamoyl)-1H-1,2,3-triazol-1-yl]butyl}-N-methyl-1,3,4-thiadiazole-2-carboxamide] | 100 to 500 | 500 to 5000
13 | CNC(=O)c1nnc(CCC(F)Cn2cc(C(=O)NCc3cccc(OC(F)(F)F)c3)nn2)s1 (stereo not shown) [Example 504, 5-{3-fluoro-4-[4-({[3-(trifluoromethoxy)phenyl]methyl}carbamoyl)-1H-1,2,3-triazol-1-yl]butyl}-N-methyl-1,3,4-thiadiazole-2-carboxamide] | < 100 | 100 to 500

More lines, now with the values ahead:

Row | IC50 [1] [nM] | EC50 (A549 cells) [nM] | Compound
14 | < 100 | < 100 | O=C(NCc1cncc(C(F)(F)F)c1)c1cn(CC(F)CCc2nnc(C(=O)NCc3cccc(OC(F)(F)F)c3)s2)nn1 (stereo not shown) [Example 482, 5-{3-fluoro-4-[4-({[5-(trifluoromethyl)pyridin-3-yl]methyl}carbamoyl)-1H-1,2,3-triazol-1-yl]butyl}-N-{[3-(trifluoromethoxy)phenyl]methyl}-1,3,4-thiadiazole-2-carboxamide]
15 | < 100 | < 100 | O=C(NCc1cccc(OC(F)(F)F)c1)c1cn(CC(F)CCc2nnc(C(=O)NCc3cncc(C(F)(F)F)c3)s2)nn1 (stereo not shown) [Example 483, 5-{3-fluoro-4-[4-({[3-(trifluoromethoxy)phenyl]methyl}carbamoyl)-1H-1,2,3-triazol-1-yl]butyl}-N-{[5-(trifluoromethyl)pyridin-3-yl]methyl}-1,3,4-thiadiazole-2-carboxamide]
16 | < 100 | < 100 | O=C(NCc1cccc(C(F)(F)F)c1)c1cn(CC(F)CCc2nnc(C(=O)NCc3cncc(C(F)(F)F)c3)s2)nn1 (stereo not shown) [Example 484, 5-{3-fluoro-4-[4-({[3-(trifluoromethyl)phenyl]methyl}carbamoyl)-1H-1,2,3-triazol-1-yl]butyl}-N-{[5-(trifluoromethyl)pyridin-3-yl]methyl}-1,3,4-thiadiazole-2-carboxamide]
17 | < 100 | < 100 | O=C(NCc1cncc(C(F)(F)F)c1)c1cn(CC(F)CCc2nnc(C(=O)NCc3cc(C(F)(F)F)ccn3)s2)nn1 (stereo not shown) [Example 485, 5-{3-fluoro-4-[4-({[5-(trifluoromethyl)pyridin-3-yl]methyl}carbamoyl)-1H-1,2,3-triazol-1-yl]butyl}-N-{[4-(trifluoromethyl)pyridin-2-yl]methyl}-1,3,4-thiadiazole-2-carboxamide]
18 | < 100 | < 100 | O=C(Cc1cccc(OC(F)(F)F)c1)Nc1cn(CC(F)CCn2cc(C(=O)NCc3ccc(C(F)(F)F)cn3)nn2)nn1 (stereo not shown) [Example 486, 1-[3-fluoro-4-(4-{2-[3-(trifluoromethoxy)phenyl]acetamido}-1H-1,2,3-triazol-1-yl)butyl]-N-{[5-(trifluoromethyl)pyridin-2-yl]methyl}-1H-1,2,3-triazole-4-carboxamide]
19 | < 100 | < 100 | O=C(Cc1cccc(OC(F)(F)F)c1)Nc1cn(CC(F)CCn2cc(C(=O)NCc3cccc(C(F)(F)F)n3)nn2)nn1 (stereo not shown) [Example 487, 1-[3-fluoro-4-(4-{2-[3-(trifluoromethoxy)phenyl]acetamido}-1H-1,2,3-triazol-1-yl)butyl]-N-{[6-(trifluoromethyl)pyridin-2-yl]methyl}-1H-1,2,3-triazole-4-carboxamide]
20 | < 100 | < 100 | O=C(NCc1cncc(C(F)(F)F)c1)c1cn(CC(F)CCc2nnc(C(=O)NCc3ccc(C(F)(F)F)cn3)s2)nn1 (stereo not shown) [Example 488, 5-{3-fluoro-4-[4-({[5-(trifluoromethyl)pyridin-3-yl]methyl}carbamoyl)-1H-1,2,3-triazol-1-yl]butyl}-N-{[5-(trifluoromethyl)pyridin-2-yl]methyl}-1,3,4-thiadiazole-2-carboxamide]
21 | < 100 | < 100 | O=C(NCc1cc(C(F)(F)F)ccn1)c1cn(CC(F)CCc2nnc(C(=O)NCc3ccc(C(F)(F)F)cn3)s2)nn1 (stereo not shown) [Example 489, 5-{3-fluoro-4-[4-({[4-(trifluoromethyl)pyridin-2-yl]methyl}carbamoyl)-1H-1,2,3-triazol-1-yl]butyl}-N-{[5-(trifluoromethyl)pyridin-2-yl]methyl}-1,3,4-thiadiazole-2-carboxamide]
22 | < 100 | < 100 | O=C(NCc1cncc(C(F)(F)F)c1)c1cn(CC(F)CCc2nnc(C(=O)NCc3cccc(C(F)(F)F)n3)s2)nn1 (stereo not shown) [Example 490, 5-{3-fluoro-4-[4-({[5-(trifluoromethyl)pyridin-3-yl]methyl}carbamoyl)-1H-1,2,3-triazol-1-yl]butyl}-N-{[6-(trifluoromethyl)pyridin-2-yl]methyl}-1,3,4-thiadiazole-2-carboxamide]
23 | < 100 | < 100 | O=C(NCc1cc(C(F)(F)F)ccn1)c1cn(CC(F)CCc2nnc(C(=O)NCc3cccc(C(F)(F)F)n3)s2)nn1 (stereo not shown) [Example 491, 5-{3-fluoro-4-[4-({[4-(trifluoromethyl)pyridin-2-yl]methyl}carbamoyl)-1H-1,2,3-triazol-1-yl]butyl}-N-{[6-(trifluoromethyl)pyridin-2-yl]methyl}-1,3,4-thiadiazole-2-carboxamide]
